“And” between values parts separate entries of the source, which are not always exact repeats. Equal values may be shown once.
Legend:
Type in all cases: in vivo
[1] = tested on: Alopecurus myosuroides (blackgrass, ALOMY); assay: Greenhouse postemergence trial ALOMY; details: Compound A 10 g/ha
Description: (§1) Seeds of the desired test plant species were planted in a 90:10% v/v (volume/volume) mixture of PRO-MIX® BX (Premier Tech Horticulture, Quakertown, PA, USA) and PROFILE® GREENS GRADE™ (Profile Products LLC, Buffalo Grove, IL, USA) planting mixture, which typically has a pH of 5.2 to 6.2 and an organic matter content of at least 50 percent, in plastic pots with a surface area of 103.2 square centimeters (cm^2). […] The plants were grown for 7-36 days (d) in a greenhouse with an approximate 14-hour (h) photo-period which was maintained at about 23° C. during the day and 22° C. during the night. Nutrients and water were added on a regular basis and supplemental lighting was provided with overhead metal halide 1000-Watt lamps as necessary. The plants were employed for testing when they reached the second or third true leaf stage.
(§2) Emulsifiable concentrates of each of each pyridine carboxylate herbicide (Compound A or Compound B) were prepared at 100 grams acid equivalent per liter (g ae/L). The emulsifiable concentrates also included a safener, cloquintocet-mexyl, at 120 grams active ingredient per liter (g ai/L), unless otherwise noted below. An aliquot of each emulsifiable concentrate was placed in a 25 mL glass vial and diluted with an aqueous mixture of 1.25% (v/v) ACTIROB® B esterified rapeseed oil (Bayer Crop Science, Research Triangle Park, NC, USA) or MSO® Concentrate with LECI-TECH® methylated soybean oil (Loveland Products, Loveland, CO, USA) to obtain concentrated stock solutions at the highest application rate for each herbicide, based upon a 12 milliliter (mL) application volume at a rate of 187 liters per hectare (L/ha). The concentrated stock solutions were further diluted with an aqueous mixture of 1.25% v/v ACTIROB® B or MSO® Concentrate with LECI-TECH® to obtain stock solutions at reduced application rates for each herbicide. Spray solutions of the herbicide combinations (Compound A or Compound B plus synthetic auxin herbicide or auxin transport inhibitor) were prepared by adding weighed amounts or aliquots of the synthetic auxin herbicide or auxin transport inhibitor to the stock solutions of Compound A or Compound B to form 12-mL spray solutions in two-way combinations. […]
(§3) The treated plants and control plants were placed in a greenhouse as described above and watered by sub-irrigation to prevent wash-off of the test compounds. After 20-22 d, the condition of the test plants as compared with that of the control plants was determined visually and scored on a scale of 0 to 100 percent where 0 corresponds to no injury and 100 corresponds to complete kill.

[2] = tested on: Viola arvensis (field violet, VIOAR); assay: Greenhouse postemergence trial VIOAR; details: for % visual injury Obs: alone; for % visual injury, Obs: applied alone; for % visual injury: c1-3 Compound A 7.5/10/15
[3] = tested on: Matricaria inodora (false chamomile, MATIN); assay: Greenhouse postemergence trial MATIN; details: MATIN; for % visual injury, Obs: applied alone
Description: as §1
(§4) Emulsifiable concentrates of each of each pyridine carboxylate herbicide (Compound A or Compound B) were prepared at 100 grams acid equivalent per liter (g ae/L). The emulsifiable concentrates also included a safener, cloquintocet-mexyl, at 120 grams active ingredient per liter (g ai/L), unless otherwise noted below. An aliquot of each emulsifiable concentrate was placed in a 25 mL glass vial and diluted with an aqueous mixture of 1.25% (v/v) ACTIROB® B esterified rapeseed oil (Bayer Crop Science, Research Triangle Park, NC, USA) or MSO® Concentrate with LECI-TECH® methylated soybean oil (Loveland Products, Loveland, CO, USA) to obtain concentrated stock solutions at the highest application rate for each herbicide, based upon a 12 milliliter (mL) application volume at a rate of 187 liters per hectare (L/ha). The concentrated stock solutions were further diluted with an aqueous mixture of 1.25% v/v ACTIROB® B or MSO® Concentrate with LECI-TECH® to obtain stock solutions at reduced application rates for each herbicide. Spray solutions of the herbicide combinations (Compound A or Compound B plus synthetic auxin herbicide or auxin transport inhibitor) were prepared by adding weighed amounts or aliquots of the synthetic auxin herbicide or auxin transport inhibitor to the stock solutions of Compound A or Compound B to form 12-mL spray solutions in two-way combinations.
(§5) The spray solutions were applied to the plant material with an overhead Mandel track sprayer equipped with 8002E nozzles calibrated to deliver 187 L/ha over an application area of 0.503 square meters (m^2) at a spray height of 18 inches (43 centimeters (cm)) above the average plant canopy. Control plants were sprayed in the same manner with the solvent blank. All pyridine carboxylate herbicide (component a) application rates are given as “g ae/ha” and all synthetic auxin herbicide or auxin transport inhibitor (component b) application rates are given as “g ai/ha.”
as §3

[4] = tested on: Ipomoea hederacea (ivyleaf morningglory, IPOHE); assay: Greenhouse postemergence trial IPOHE; details: Compound A 10 g/ha
Description: as §1, §4, §5, §3

[5] = tested on: Cyanus segetum (cornflower, CENCY); assay: Greenhouse postemergence trial CENCY; details: CENCY; for % visual injury Obs: alone; for % visual injury, Obs: applied alone
Description: as §1, §4, §5, §3

[6] = tested on: Sorghum vulgare (grain sorghum, SORVU); assay: Greenhouse postemergence trial SORVU; details: Compound A 10 g/ha
Description: as §1, §2, §3

[7] = tested on: Setaria faberi (giant foxtail, SETFA); assay: Greenhouse postemergence trial SETFA; details: Compound A 10 g/ha
Description: as §1, §4, §5, §3

[8] = tested on: Capsella bursa-pastoris (shepherd's purse, CAPBP); assay: Greenhouse postemergence trial CAPBP; details: CAPBP; for % visual injury, Obs: applied alone
[9] = tested on: Hordeum vulgare (winter barley, HORVW); assay: Greenhouse postemergence crop phytotoxicity HORVW; details: for % visual injury Obs / visual injury, Obs / % visual injury, Obs: HORVW; for % visual injury, Obs: applied alone; for % visual injury (crop phytotoxicity): c1-3 Compound A 7.5/10/15
[10] = tested on: Polygonum convolvulus (wild buckwheat, POLCO); assay: Greenhouse postemergence trial POLCO
[11] = tested on: Triticum aestivum (winter wheat, TRZAW); assay: Greenhouse postemergence crop phytotoxicity TRZAW; details: for % visual injury Obs / visual injury, Obs / % visual injury, Obs: TRZAW; for % visual injury, Obs: applied alone; for % visual injury (crop phytotoxicity): c1-3 Compound A 7.5/10/15
[12] = tested on: Matricaria chamomilla (wild chamomile, MATCH); assay: Greenhouse postemergence trial MATCH;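 also: greenhouse plants sprayed at second to third true leaf stage, injury rated by eye 20-22 d later versus solvent-blank controls on 0–100 scale, 0 no injury, 100 complete kill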
[13] = tested on: Glycine max (volunteer soybean, GLXMA); assay: Greenhouse postemergence trial GLXMA; details: Compound A 10 g/ha
[14] = tested on: Oryza sativa (common rice, ORYSA); assay: Greenhouse postemergence trial ORYSA; details: Compound A 10 g/ha
Description: as §1
Emulsifiable concentrates of each of each pyridine carboxylate herbicide (Compound A or Compound B) were prepared at 100 grams acid equivalent per liter (g ae/L). […]
as §3

[15] = tested on: Kochia scoparia (kochia, KCHSC); assay: Greenhouse postemergence trial KCHSC
[16] = c4-5 Fluroxypyr-MHE 100/140, c6-8, c9-11 A 7.5/10/15 + Fluroxypyr-MHE 100, 140 g/ha
[17] = c4-6 Clopyralid 30/60/120, c7-9, c10-12, c13-15 A 7.5/10/15 + Clopyralid 30, 60, 120 g/ha
[18] = c4 Aminopyralid 5, c5-7 A 7.5/10/15 + Aminopyralid 5 g/ha
[19] = c4 Halauxifen-methyl 6, c5-7 A 7.5/10/15 + Halauxifen-methyl 6 g/ha
[20] = Compound A 10 g/ha, without safener

## N#CCOC(=O)c1nc(-c2ccc3cc[nH]c3c2F)c(F)c(N)c1Cl [Compound A, cyanomethyl 4-amino-3-chloro-5-fluoro-6-(7-fluoro-1H-indol-6-yl)pyridine-2-carboxylate]
[1]; ALOMY
  % visual injury, Obs: 0%
[1]; without safener
  ALOMY Obs (% visual injury): 0%
[2]; VIOAR, Compound A 10 g/ha alone
  visual injury, Obs: 10%
[2]; VIOAR, Compound A 15 g/ha alone
  visual injury, Obs: 15%
[2]; VIOAR, 10 g/ha
  % visual injury Obs: 10%
  % visual injury, Obs: 10%
[2]; VIOAR, 15 g/ha
  % visual injury Obs: 15%
  % visual injury, Obs: 15%
[2]; Viola arvensis, post-emergence, VIOAR, Compound A 7.5 g/ha, read-out: % visual injury Obs
  pest or weed control at […]: 10%
[2]; Viola arvensis, post-emergence, VIOAR, Compound A 10 g/ha, read-out: % visual injury Obs
  pest or weed control at 10 g/ha: 10%
[2]; Viola arvensis, post-emergence, VIOAR, Compound A 15 g/ha, read-out: % visual injury Obs
  pest or weed control at 15 g/ha: 15%
[2]; [16]
  % visual injury: 5%
[2]; [17]
  % visual injury: 5%
[2]; [18]
  % visual injury: 5%
[2]; [19]
  % visual injury: 5%
[3]; Compound A 10 g/ha alone
  visual injury, Obs: 60%
[3]; Compound A 15 g/ha alone
  visual injury, Obs: 60%
[3]; alone 10 g/ha
  % visual injury (Obs): 93%
  % visual injury Obs: 60%
[3]; alone, 15 g/ha
  % visual injury Obs: 60%
[3]; 10 g/ha
  % visual injury, Obs: 60%
[3]; 15 g/ha
  % visual injury, Obs: 60%
[3]; Tripleurospermum inodorum, post-emergence, Compound A 7.5 g/ha, read-out: % visual injury Obs
  pest or weed control at […]: 30%
[3]; Tripleurospermum inodorum, post-emergence, Compound A 10 g/ha, read-out: % visual injury Obs
  pest or weed control at 10 g/ha: 60%
[3]; Tripleurospermum inodorum, post-emergence, Compound A 15 g/ha, read-out: % visual injury Obs
  pest or weed control at 15 g/ha: 60%
[4]; without safener
  IPOHE Obs (% visual injury): 15%
[4]; IPOHE
  % visual injury, Obs: 15%
[5]; Compound A 10 g/ha alone
  visual injury, Obs: 100%
[5]; Compound A 15 g/ha alone
  visual injury, Obs: 100%
[5]; 10 g/ha
  % visual injury Obs: 100%
  % visual injury, Obs: 100%
[5]; 15 g/ha
  % visual injury Obs: 100%
  % visual injury, Obs: 100%
[5]; Centaurea cyanus, post-emergence, Compound A 7.5 g/ha, read-out: % visual injury Obs
  pest or weed control at […]: 100%
[5]; Centaurea cyanus, post-emergence, Compound A 10 g/ha, read-out: % visual injury Obs
  pest or weed control at 10 g/ha: 100%
[5]; Centaurea cyanus, post-emergence, Compound A 15 g/ha, read-out: % visual injury Obs
  pest or weed control at 15 g/ha: 100%
[6]; without safener
  SORVU Obs (% visual injury): 0%
[6]; SORVU
  % visual injury, Obs: 0%
[7]
  SETFA Obs (% visual injury): 70%
[7]; without safener
  SETFA Obs (% visual injury): 0%
[7]; SETFA
  % visual injury, Obs: 0%
[8]; Compound A 10 g/ha alone
  visual injury, Obs: 50%
[8]; Compound A 15 g/ha alone
  visual injury, Obs: 85%
[8]; alone 10 g/ha
  % visual injury (Obs): 78%
  % visual injury Obs: 50%
[8]; alone, 15 g/ha
  % visual injury Obs: 85%
[8]; 10 g/ha
  % visual injury, Obs: 50%
[8]; 15 g/ha
  % visual injury, Obs: 85%
[8]; Capsella bursa-pastoris, post-emergence, Compound A 7.5 g/ha, read-out: % visual injury Obs
  pest or weed control at […]: 50%
[8]; Capsella bursa-pastoris, post-emergence, Compound A 10 g/ha, read-out: % visual injury Obs
  pest or weed control at 10 g/ha: 50%
[8]; Capsella bursa-pastoris, post-emergence, Compound A 15 g/ha, read-out: % visual injury Obs
  pest or weed control at 15 g/ha: 85%
[9]; Compound A 10 g/ha
  % visual injury Obs: 0%
[9]; Compound A 10 g/ha alone
  visual injury, Obs: 0%
[9]; Compound A 15 g/ha
  % visual injury Obs: 0%
[9]; Compound A 15 g/ha alone
  visual injury, Obs: 0%
[9]; alone, 10 g/ha
  % visual injury Obs: 0%
[9]; alone, 15 g/ha
  % visual injury Obs: 0%
[9]; 10 g/ha
  % visual injury, Obs: 0%
[9]; 15 g/ha
  % visual injury, Obs: 0%
[9]; [16]
  % visual injury (crop phytotoxicity): 0%
[9]; [17]
  % visual injury (crop phytotoxicity): 0%
[9]; [18]
  % visual injury (crop phytotoxicity): 0%
[9]; [19]
  % visual injury (crop phytotoxicity): 0%
[10]; Compound A 10 g/ha
  POLCO Obs (% visual injury): 91% and 70%
[10]; Compound A 10 g/ha (Table 42)
  POLCO % visual injury Obs: 91%
[10]; Compound A 10 g/ha (Table 43)
  POLCO % visual injury Obs: 91%
[10]; Compound A 10 g/ha (Table 44)
  POLCO % visual injury Obs: 91%
[10]; [20]
  POLCO Obs (% visual injury): 78%
[10]; Fallopia convolvulus, post-emergence, POLCO, Compound A 7.5 g/ha, read-out: % visual injury Obs
  pest or weed control at […]: 85%
[10]; Fallopia convolvulus, post-emergence, POLCO, Compound A 10 g/ha, read-out: % visual injury Obs
  pest or weed control at 10 g/ha: 90%
[10]; Fallopia convolvulus, post-emergence, POLCO, Compound A 15 g/ha, read-out: % visual injury Obs
  pest or weed control at 15 g/ha: 95%
[10]; POLCO, Compound A 10 g/ha
  % visual injury Obs: 90%
  % visual injury, Obs: 91% and 70% and 78%
[10]; POLCO, Compound A 10 g/ha alone
  visual injury, Obs: 90%
[10]; POLCO, Compound A 15 g/ha alone
  visual injury, Obs: 95%
[10]; POLCO, alone 10 g/ha
  % visual injury (Obs): 86% and 96% and 70%
  % visual injury Obs: 90%
[10]; POLCO, alone, 15 g/ha
  % visual injury Obs: 95%
[10]; POLCO, applied alone, 10 g/ha
  % visual injury, Obs: 90% and 43%
[10]; POLCO, applied alone, 15 g/ha
  % visual injury, Obs: 95%
[11]; Compound A 10 g/ha
  % visual injury Obs: 0%
[11]; Compound A 10 g/ha alone
  visual injury, Obs: 0%
[11]; Compound A 15 g/ha
  % visual injury Obs: 0%
[11]; Compound A 15 g/ha alone
  visual injury, Obs: 0%
[11]; alone, 10 g/ha
  % visual injury Obs: 0%
[11]; alone, 15 g/ha
  % visual injury Obs: 0%
[11]; 10 g/ha
  % visual injury, Obs: 0%
[11]; 15 g/ha
  % visual injury, Obs: 0%
[11]; [16]
  % visual injury (crop phytotoxicity): 0%
[11]; [17]
  % visual injury (crop phytotoxicity): 0%
[11]; [18]
  % visual injury (crop phytotoxicity): 0%
[11]; [19]
  % visual injury (crop phytotoxicity): 0%
[12]; Compound A 10 g/ha (Table 42)
  MATCH % visual injury Obs: 13%
[12]; Compound A 10 g/ha (Table 43)
  MATCH % visual injury Obs: 13%
[12]; Compound A 10 g/ha (Table 44)
  MATCH % visual injury Obs: 13%
[12]; MATCH, Compound A 10 g/ha
  % visual injury, Obs: 30%
[12]; MATCH, Compound A 10 g/ha alone
  visual injury, Obs: 20%
[12]; MATCH, Compound A 15 g/ha alone
  visual injury, Obs: 20%
[12]; MATCH, alone 10 g/ha
  % visual injury (Obs): 33% and 30%
  % visual injury Obs: 20%
[12]; MATCH, alone, 15 g/ha
  % visual injury Obs: 20%
[12]; MATCH, applied alone, 10 g/ha
  % visual injury, Obs: 20%
[12]; MATCH, applied alone, 15 g/ha
  % visual injury, Obs: 20%
[12]; Matricaria chamomilla, post-emergence, MATCH, Compound A 7.5 g/ha, read-out: % visual injury Obs
  pest or weed control at […]: 15%
[12]; Matricaria chamomilla, post-emergence, MATCH, Compound A 10 g/ha, read-out: % visual injury Obs
  pest or weed control at 10 g/ha: 20%
[12]; Matricaria chamomilla, post-emergence, MATCH, Compound A 15 g/ha, read-out: % visual injury Obs
  pest or weed control at 15 g/ha: 20%
[13]; without safener
  GLXMA Obs (% visual injury): 85%
[13]; GLXMA
  % visual injury, Obs: 85%
[14]
  ORYSA Obs (% visual injury): 10%
[15]; Bassia scoparia, post-emergence, KCHSC, Compound A 7.5 g/ha, read-out: % visual injury Obs
  pest or weed control at […]: 70%
[15]; Bassia scoparia, post-emergence, KCHSC, Compound A 10 g/ha, read-out: % visual injury Obs
  pest or weed control at 10 g/ha: 75%
[15]; Bassia scoparia, post-emergence, KCHSC, Compound A 15 g/ha, read-out: % visual injury Obs
  pest or weed control at 15 g/ha: 80%
[15]; Compound A 10 g/ha
  KCHSC Obs (% visual injury): 65% and 55%
[15]; Compound A 10 g/ha (Table 42)
  KCHSC % visual injury Obs: 65%
[15]; Compound A 10 g/ha (Table 43)
  KCHSC % visual injury Obs: 65%
[15]; Compound A 10 g/ha (Table 44)
  KCHSC % visual injury Obs: 65%
[15]; [20]
  KCHSC Obs (% visual injury): 88%
[15]; KCHSC, Compound A 10 g/ha
  % visual injury Obs: 75%
  % visual injury, Obs: 65% and 70% and 88%
[15]; KCHSC, Compound A 10 g/ha alone
  visual injury, Obs: 75%
[15]; KCHSC, Compound A 15 g/ha alone
  visual injury, Obs: 80%
[15]; KCHSC, alone 10 g/ha
  % visual injury (Obs): 68% and 55% and 70%
  % visual injury Obs: 75%
[15]; KCHSC, alone, 15 g/ha
  % visual injury Obs: 80%
[15]; KCHSC, applied alone, 10 g/ha
  % visual injury, Obs: 75% and 70%
[15]; KCHSC, applied alone, 15 g/ha
  % visual injury, Obs: 80%

Source: US12568967B2, “Compositions comprising pyridine carboxylate herbicides with synthetic auxin herbicides or auxin transport inhibitors” (priority 2018, dated 2026)
